Assay results reported in US20150368248A1, “2-SUBSTITUTED-6-BIARYLMETHYLAMINO-9-CYCLOPENTYL-9H-PURINE DERIVATIVES, USE THEREOF AS MEDICAMENTS, AND PHARMACEUTICAL COMPOSITIONS” (UNIVERZITA PALACKEHO V OLOMOUCI, priority 2013, published 2015).
Read-outs that look alike come from different tables or passages of the source.

Tests used:
[1] = target: T1, CDK1/cyclin B (Homo sapiens, UniProt P06493); assay: Kinase inhibition assay, recombinant kinase, [γ-33P]ATP; format: biochemical; details: read-out: Kinase inhibition IC50, CDK1
T1 construct: made in house; host or cells: Sf9 insect cells (baculovirus)
T1 sequence (P06493 whole entry, species assumed): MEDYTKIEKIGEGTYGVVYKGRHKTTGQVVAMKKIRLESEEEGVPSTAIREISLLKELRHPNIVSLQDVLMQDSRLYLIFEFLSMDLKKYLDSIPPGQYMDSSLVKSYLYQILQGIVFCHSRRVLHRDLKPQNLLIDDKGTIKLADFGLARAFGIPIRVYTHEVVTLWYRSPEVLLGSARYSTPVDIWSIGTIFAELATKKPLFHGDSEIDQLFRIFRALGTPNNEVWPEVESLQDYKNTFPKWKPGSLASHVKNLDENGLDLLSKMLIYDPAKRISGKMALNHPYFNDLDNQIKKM
T1 sequence (P14635 whole entry partner, species assumed): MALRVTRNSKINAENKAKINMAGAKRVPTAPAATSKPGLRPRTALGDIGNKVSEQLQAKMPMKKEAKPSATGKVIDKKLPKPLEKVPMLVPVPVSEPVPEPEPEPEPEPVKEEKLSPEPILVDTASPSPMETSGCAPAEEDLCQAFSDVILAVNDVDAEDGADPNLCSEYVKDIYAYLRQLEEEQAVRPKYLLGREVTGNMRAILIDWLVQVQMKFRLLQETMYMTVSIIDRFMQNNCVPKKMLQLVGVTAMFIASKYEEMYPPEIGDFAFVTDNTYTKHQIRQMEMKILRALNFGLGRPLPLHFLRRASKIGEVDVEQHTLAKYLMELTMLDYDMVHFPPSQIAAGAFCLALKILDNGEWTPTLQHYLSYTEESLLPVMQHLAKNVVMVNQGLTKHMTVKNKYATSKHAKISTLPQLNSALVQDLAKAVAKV
Experimental: CDK2/Cyclin E kinase was produced in Sf9 insect cells via baculoviral infection and purified on a NiNTA column (Qiagen). CDK5/p35, CDK7Cyclin H/MAT1 and CDK9/Cyclin T1 was purchased from ProQinase GmbH. […] The reactions were stopped by adding 5 μL of 3% aq H3PO4. Aliquots were spotted onto P-81 phosphocellulose (Whatman), washed 3× with 0.5% aq H3PO4 and finally air-dried.
CDK1/cyclin B and CDK2/cyclin E kinases were produced in Sf9 insect cells via baculoviral infection, while CDK5/p35, CDK7/cyclin H/MAT1, and CDK9/cyclin T1 were purchased from ProQinase (Freiburg, Germany) and assayed as described previously (35). The kinase reactions were assayed with 1 mg/ml histone H1 (for CDK2 and CDK5) or (YSPTSPS)2KK peptide (for CDK7 and CDK9) in the presence of 15/0.15/1.5/1.5 […] ATP (for CDK2/CDK5/CDK7CDK9), […] [γ-^33P]ATP and of the test compound in a final volume of […]. The reaction buffer contained 60 mM HEPES-NaOH, pH 7.5, 3 mM MgCl2, 3 mM MnCl2, 3 mM Na-orthovanadate, 1.2 mM DTT, 2.5 mg/50 ml PEG20.000. The reactions were stopped by adding […] of 3% H3PO4. Aliquots were spotted onto P-81 phosphocellulose (Whatman, GE Healthcare Biosciences, Pittsburgh, USA), washed 3 times with 0.5% H3PO4 and finally air-dried. Kinase inhibition was quantified using a FLA-7000 digital image analyzer (Fujifilm, Tokyo, Japan).

[2] = tested on: caspase-3/7 activity in Hep3B cell line; assay: One-step cellular caspase-3/7 activity assay; format: cell-based, human; details: 24 hours, 0 nM = 1.00
Experimental: (§1) Measurements of proapoptotic properties of new compounds were based on quantification of enzymatic activities of caspases, concretely caspases-3/7. Activity of cellular caspase-3/7 was measured according to Carrasco et al., 2003, BioTechniques, 34(5): 1064-67. Briefly, Hep3B and PLC/PRF/5 cells were incubated in the densities of 10000 cells/well in a 96-well plate overnight. Next day, the compounds in appropriate concentrations were added and cells were incubated for the 24 hours. After incubation, 3× caspase-3/7 assay buffer (150 mM HEPES pH 7.4, 450 mM NaCl, 150 mM KCl, 30 mM MgCl2, 1.2 mM EGTA, 1.5% Nonidet P40, 0.3% CHAPS, 30% sucrose, 30 mM DTT, 3 mM PMSF) with 150 μM Ac-DEVD-AMC as a substrate (Sigma-Aldrich) was added to the wells and plates were incubated at […]. The caspase-3/7 activity was measured after 6 hours using Fluoroskan Ascent microplate reader (Labsystems) at 346 nm/442 nm (excitation/emission).

[3] = tested on: caspase-3/7 activity in PLC/PRF/5 cell line; assay: One-step cellular caspase-3/7 activity assay; format: cell-based, human; details: 24 hours incubation, relative to 0 nM = 1.00
Experimental: as §1

[4] = tested on: human umbilical vein endothelial cells (HUVEC); assay: HUVEC proliferation, Calcein AM; format: cell-based; details: Homo sapiens, HUVEC, read-out: Inhibitory concentration for HUVEC cells - IC50
Experimental: Novel 2-substituted-6-biarylmethylamino-9-cyclopentyl-9H-purine derivatives were tested for their potential anti-angiogenic properties; we analyzed its influence on the proliferation (Tab. 9), migration and tube formation of human umbilical vein endothelial cells (HUVEC). Confluent HUVECs were seeded in 96-well microtiter plates to detect their proliferation for 24 or 72 h using Calcein AM solution (Invitrogen) and a Fluoroskan Ascent microplate reader (Labsystems) as described previously (Krystof et al., 2011, Eur J Med Chem. 2011 September; 46(9):4289-94).

[5] = tested on: human umbilical vein endothelial cells (HUVECs); assay: Migration scratch assay; format: cell-based; set-up: key to Wound area: ++: open; +: partly open; 0: closed; details: 24 h
Experimental: Migration assay was performed as described previously (Krystof et al., 2011, Eur J Med Chem.; 46(9):4289-94). Briefly, confluent HUVECs were scratched and immediately treated for 24 h with various doses of compounds. After incubation each well was photographed using a DP Controller system (Olympus) connected to a Olympus BX50 microscope. Migration was expressed as the proportion of pixels of the wound area in the image that were not covered by cells using “in house” software.

IC50 [1] [nM]	Compound	Relative caspase-3/7 activity in Hep3B cell line ([2]; 200 nM)	Relative caspase-3/7 activity in Hep3B cell line ([2]; 400 nM)	Relative caspase-3/7 activity in Hep3B cell line ([2]; 800 nM)	Relative caspase-3/7 activity in Hep3B cell line ([2]; 1600 nM)	Relative caspase-3/7 activity in PLC/PRF/5 cell line ([3]; compound concentration 40 nM)	Relative caspase-3/7 activity in PLC/PRF/5 cell line ([3]; compound concentration 80 nM)	Relative caspase-3/7 activity in PLC/PRF/5 cell line ([3]; compound concentration 160 nM)	Relative caspase-3/7 activity in PLC/PRF/5 cell line ([3]; compound concentration 320 nM)	Relative caspase-3/7 activity in PLC/PRF/5 cell line ([3]; compound concentration 640 nM)	Relative caspase-3/7 activity in PLC/PRF/5 cell line ([3]; compound concentration 1280 nM)	IC50 ([4]; 24 h) [nM]	IC50 ([4]; 72 h) [nM]	Wound area ([5]; 100 nM)	Wound area ([5]; 1000 nM)	Relative caspase-3/7 activity in Hep3B cell line ([2]; 100 nM)
119	NC1CCC(Nc2nc(NCc3ccc(-c4cccs4)cc3)c3ncn(C4CCCC4)c3n2)CC1 (centres unmarked) [BP2, N^2-(4-amino-cyclohexyl)-9-cyclopentyl-N^6-(4-thiophen-2-yl-benzyl)-9H-purine-2,6-diamine]	1.09	1.40	3.73	7.77	1.09	1.14	1.30	2.24	>5.00	>5.00					
148	NC1CCC(Nc2nc(NCc3ccc(-c4ccco4)cc3)c3ncn(C4CCCC4)c3n2)CC1 (centres unmarked) [BP4, N^2-(4-amino-cyclohexyl)-9-cyclopentyl-N^6-(4-furan-2-yl-benzyl)-9H-purine-2,6-diamine]	1.12	1.44	5.58	9.25			0.67	0.61	0.33	0.55	15700	450	0	++	
183	NC1CCC(Nc2nc(NCc3ccc(-c4ccsc4)cc3)c3ncn(C4CCCC4)c3n2)CC1 (centres unmarked) [BP5, N^2-(4-amino-cyclohexyl)-9-cyclopentyl-N^6-(4-thiophen-3-yl-benzyl)-9H-purine-2,6-diamine]	1.09	1.48	6.65	8.96	0.65	1.07	2.22	3.37	>5.00	>5.00					
422	NC1CCC(Nc2nc(NCc3ccc(-c4cccc(F)c4)cc3)c3ncn(C4CCCC4)c3n2)CC1 (centres unmarked) [BP12, N^2-(4-amino-cyclohexyl)-9-cyclopentyl-N^6-(3′-fluoro-biphenyl-4-ylmethyl)-9H-purine-2,6-diamine]	1.12	4.20	7.04	9.85	0.93	1.27	3.10	2.95	>5.00	>5.00					
301	COc1ccccc1-c1ccc(CNc2nc(NC3CCC(N)CC3)nc3c2ncn3C2CCCC2)cc1 (centres unmarked) [BP16, N^2-(4-amino-cyclohexyl)-9-cyclopentyl-N^6-(2′-methoxy-biphenyl-4-ylmethyl)-9H-purine-2,6-diamine]	0.93	1.26	2.82	7.07	1.01	0.73	1.15	2.42	>5.00	>5.00					
58	NC1CCC(Nc2nc(NCc3ccc(-n4cccn4)cc3)c3ncn(C4CCCC4)c3n2)CC1 (centres unmarked) [BP24, N^2-(4-amino-cyclohexyl)-9-cyclopentyl-N^6-(4-pyrazol-1-yl-benzyl)-9H-purine-2,6-diamine]	6.18	6.81	9.80	9.65	2.01	2.59	>5.00	>5.00	>5.00	>5.00	> 50000	170	+	++	1.98
152	Nc1ccccc1-c1ccc(CNc2nc(NC3CCC(N)CC3)nc3c2ncn3C2CCCC2)cc1 (centres unmarked) [BP32, N^2-(4-amino-cyclohexyl)-9-cyclopentyl-N^6-(2′-amino-biphenyl-4-ylmethyl)-9H-purine-2,6-diamine]	0.70	1.15	2.48	7.53	0.62	1.00	0.69	2.01	>5.00	>5.00					

Compound	IC50 [1] [nM]	Relative caspase-3/7 activity in Hep3B cell line ([2]; 200 nM)	Relative caspase-3/7 activity in Hep3B cell line ([2]; 400 nM)	Relative caspase-3/7 activity in Hep3B cell line ([2]; 800 nM)	Relative caspase-3/7 activity in Hep3B cell line ([2]; 1600 nM)	Relative caspase-3/7 activity in PLC/PRF/5 cell line ([3]; compound concentration 40 nM)	Relative caspase-3/7 activity in PLC/PRF/5 cell line ([3]; compound concentration 80 nM)	Relative caspase-3/7 activity in PLC/PRF/5 cell line ([3]; compound concentration 160 nM)	Relative caspase-3/7 activity in PLC/PRF/5 cell line ([3]; compound concentration 320 nM)	Relative caspase-3/7 activity in PLC/PRF/5 cell line ([3]; compound concentration 640 nM)	Relative caspase-3/7 activity in PLC/PRF/5 cell line ([3]; compound concentration 1280 nM)	IC50 ([4]; 24 h) [nM]	IC50 ([4]; 72 h) [nM]	Wound area ([5]; 100 nM)	Wound area ([5]; 1000 nM)	Relative caspase-3/7 activity in Hep3B cell line ([2]; 100 nM)
NC1CCC(Nc2nc(NCc3ccc(-c4ccoc4)cc3)c3ncn(C4CCCC4)c3n2)CC1 (centres unmarked) [BP13, N^2-(4-amino-cyclohexyl)-9-cyclopentyl-N^6-(4-furan-3-yl-benzyl)-9H-purine-2,6-diamine]	202	0.95	1.71	5.65	7.81	0.99	1.37	1.72	2.28	>5.00	>5.00					
